Holding throughout (test): NCI tumour cell line growth inhibition, 48 h
Test [1] has as its system XF498.
In test [2] the test system is RXF 631.
Test [3] concerns DMS-273.
Test [4] has as its system KM-20L2.
For test [5], the system named is LXFL 529.
The subject of test [6] is DMS-114.
The subject of test [7] is SNB-78.
Test [8] relates to M19-MEL.
Test [9] deals with HOP-18.

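Dose response: 5 concentrations. Exposure: 48 h. Format: 96-well plates. Endpoint: linear interpolation; highest concentration if not reached. GI50 marks 50% less growth.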 Calls of active or inactive are those of the source. No stated cut-off is given here; in the data, active = GI50 up to about 1.1 µM and inactive = higher.

With `COC(=O)CSc1nnc(-c2ccc(O)c([N+](=O)[O-])c2)[nH]1`, the GI50 in [1], in test [2], in [3], in [4] and in test [5] was > 100 µM (inactive) in each case.
With `CC[C@@]1(OC(=O)CN(C)C)C(=O)OCc2c1cc1n(c2=O)Cc2cc3ccccc3nc2-1`, the GI50 in [1] was 0.354 µM (active); in test [6], 0.0259 µM (active); in test [7], 7.67 µM (inactive); in [8], 0.114 µM (active); in test [3], 0.01 µM (active); in test [4], 0.249 µM (active). Further, the values for the GI50 in test [5] and in test [9] were 1.29 µM (inactive) and 0.312 µM (active), respectively.
As for `COc1ccc(OCC(=O)O)c2c1CCCC2=O`, the GI50 was 3.52 µM (inactive) in test [1]; > 100 µM (inactive) in test [6]; > 100 µM (inactive) in test [7]; > 100 µM (inactive) in test [2]; > 100 µM (inactive) in test [8]; > 100 µM (inactive) in test [3]. For the same compound, in [5], the GI50 is > 100 µM (inactive).
In the case of `COC(=O)Cc1cc(O)c2c(c1O)C(=O)c1ccccc1C2=O`, the GI50 in test [6] was > 100 µM (inactive); in test [7], 37.6 µM (inactive); in test [2], 35.6 µM (inactive); in test [8], > 100 µM (inactive); in [3], > 100 µM (inactive); in test [4], > 100 µM (inactive). Besides, the GI50 is 71.4 µM (inactive) in test [5] and > 100 µM (inactive) in test [9].
Consider `CC1=C(C(=O)Nc2cc(=O)n(C)c(=O)n2C)C(c2ccco2)C(C(=O)Nc2cc(=O)n(C)c(=O)n2C)=C(C)N1`, for which the GI50 in [1], in test [6], in test [7], in test [2], in test [8] and in test [4] was > 100 µM (inactive) throughout. In addition, the GI50 in test [5] was > 100 µM (inactive).
For the compound `COC(=O)C(=O)C(C#N)c1cccc2ccccc12` (stereo not given), the GI50 in test [1], in test [6], in [7], in [8], in test [3] and in [4] was > 100 µM (inactive) in each case. The GI50 in test [5] and in [9] was > 100 µM (inactive) in each case.
For the compound `COc1cc2c(c(OC)c1)C1(CC(CC#N)C2)SCCS1` (stereo not given), the GI50 in test [6], in test [7], in test [2], in test [8], in test [3] and in test [4] was > 100 µM (inactive) each time. The GI50 in test [5] and in test [9] was > 100 µM (inactive) throughout.
For the compound `CCN(CC)CCNc1ccc2nnn3c4ccccc4c(=O)c1c23`, the GI50 in test [1] was 3.49 µM (inactive); in test [6], 6.55 µM (inactive); in [7], > 10 µM (inactive); in test [2] it was 2.88 µM (inactive); in test [8] it was 4.86 µM (inactive); in test [3], 3.66 µM (inactive). For the same compound, the GI50 in [4] is 3.32 µM (inactive); in test [5] it was 5.22 µM (inactive).
For `Cc1c2ccncc2c(C)c2c1[nH]c1ccc(Cl)cc12`, the GI50 in test [1] is 4.31 µM (inactive); in test [6] it was 2.07 µM (inactive); in test [7], 3.94 µM (inactive); in test [8], 2.56 µM (inactive); in test [3], 1.59 µM (inactive); in test [4], 2.56 µM (inactive). Further, the GI50 was 1.84 µM (inactive) in [5] and 2.52 µM (inactive) in test [9].
As to `COc1ccc(C2CC(=O)c3c(O)cc(O)cc3O2)cc1O` (stereo not given), the GI50 in [1], in test [6], in [7], in test [2], in [8] and in [3] was > 100 µM (inactive) each time. Moreover, the GI50 in test [4] and in [5] was > 100 µM (inactive) throughout.

The values are drawn from ChEMBL document CHEMBL1201862, “PubChem BioAssay data set” (2004).
